From patent US20230149400A1, “METHODS AND COMPOSITIONSFOR TREATING VIRAL INFECTIONS” (ACLARIS THERAPEUTICS, INC., priority 2020, published 2023)
Like-named read-outs stand apart in the source and are kept apart here.

Columns and labels:
[1] = test system: lipopolysaccharide (TLR4)-stimulated cytokines and chemokines; assay: Ex vivo LPS (TLR4)-stimulated cytokine/chemokine production in whole blood of subjects given oral ATI-450; set-up: species or system human; conditions: for inhibition at 50 mg: Homo sapiens, po, both cohorts (100 mg once daily; 50 mg twice daily), compared to placebo
Description: Data were collected following stimulation by a lipopolysaccharide (LPS) at a single time point (5 hours) in each isolated ex vivo human whole blood sample collected. […]. Cytokines evaluated include: IL-1b, IL-1RA, IL-2, IL-7, IL-8, IL-9, IL-10, basic FGF, GCSF, GMCSF, IFNγ, IP-10, MCP-1, MIP-1α, MIP-1β, PDGF, TNFα, and VEGF.

[2] = test subjects
[3] = test system: lung polymorphonuclear neutrophils (PMN); assay: Rat model of pulmonary inflammation (LPS aerosol), lung lavage PMN count; conditions: oral 1 mg/kg or 10 mg/kg, 4 hours after LPS exposure, versus vehicle
Description: One hour after administration, animals were placed in an aerosol chamber containing 60 μg/mL lipopolysaccharide (LPS) for 40 minutes and then removed to room air. Four hours after LPS exposure, lungs of the animals were lavaged with cold D-PBS/EDTA solution and the total number of polymorphonuclear neutrophils (PMN) in the solution were counted as an indicator of the inflammatory response.

[4] = Cohort 1 (SAD), 100 mg ATI-450 once daily
[5] = Cohort 2 (MAD), 50 mg ATI-450 twice daily

Cc1cnc(-c2ccnc(C(C)(C)O)n2)cc1-n1c(C)cc(OCc2ncc(F)cc2F)c(Cl)c1=O (single isomer, unassigned) [ATI-450, 3-chloro-4-((3,5-difluoropyridin-2-yl)methoxy)-2′-(2-(2-hydroxypropan-2-yl)pyrimidin-4-yl)-5′,6-dimethyl-2H-[1,4′-bipyridin]-2-one]
LPS-stimulated IL-6, IL-8, MIP-1β, G-CSF, IL-1RA, IP-10, and MCP-1 levels ([1]; 50 mg ATI-450 twice daily): reduction | LPS-stimulated IL-6, IL-8, and MIP-1β release ([1]; 100 mg ATI-450 once daily): reduction | GCSF Not Stimulated [1, 4]: 25.01 pg/mL | GCSF Stimulated [1, 4]: 232.34 pg/mL | GMCSF Not Stimulated [1, 4]: 0.46 pg/mL | GMCSF Stimulated [1, 4]: 25.12 pg/mL | IFNγ Not Stimulated [1, 4]: 12.54 pg/mL | IFNγ Stimulated [1, 4]: 57.72 pg/mL | IL-1RA Not Stimulated [1, 4]: 974.42 pg/mL | IL-1RA Stimulated [1, 4]: 7169.95 pg/mL | IL-1β Not Stimulated [1, 4]: 1.86 pg/mL | IL-1β Stimulated [1, 4]: 776.88 pg/mL | IL-2 Not Stimulated [1, 4]: 0.65 pg/mL | IL-2 Stimulated [1, 4]: 30.06 pg/mL | IL-6 Not Stimulated [1, 4]: 15.28 pg/mL | IL-6 Stimulated [1, 4]: 8700.41 pg/mL | IL-7 Not Stimulated [1, 4]: 8.79 pg/mL | IL-7 Stimulated [1, 4]: 8.04 pg/mL | IL-8 Not Stimulated [1, 4]: 1564.00 pg/mL | IL-8 Stimulated [1, 4]: 24421.33 pg/mL | IL-9 Not Stimulated [1, 4]: 0.00 pg/mL | IL-9 Stimulated [1, 4]: 0.00 pg/mL | IL-10 Not Stimulated [1, 4]: 22.57 pg/mL | IL-10 Stimulated [1, 4]: 752.46 pg/mL | IP-10 Not Stimulated [1, 4]: 288.07 pg/mL | IP-10 Stimulated [1, 4]: 1487.58 pg/mL | MCP-1 Not Stimulated [1, 4]: 1026.37 pg/mL | MCP-1 Stimulated [1, 4]: 1215.21 pg/mL | MIP-1α Not Stimulated [1, 4]: 105.22 pg/mL | MIP-1α Stimulated [1, 4]: 32722.63 pg/mL | MIP-1β Not Stimulated [1, 4]: 504.74 pg/mL | MIP-1β Stimulated [1, 4]: 49549.56 pg/mL | TNFα Not Stimulated [1, 4]: 8.57 pg/mL | TNFα Stimulated [1, 4]: 5270.06 pg/mL | VEGF Not Stimulated [1, 4]: 186.34 pg/mL | VEGF Stimulated [1, 4]: 231.92 pg/mL | bFGF Not Stimulated [1, 4]: 29.69 pg/mL | bFGF Stimulated [1, 4]: 28.63 pg/mL | inhibition of LPS-stimulated IL-1RA ([1]; Cohort 1 and Cohort 2): about 30% | inhibition of LPS-stimulated IL-10 ([1]; Cohort 1 and Cohort 2): about 30% | GCSF Not Stimulated [1, 5]: 16.33 pg/mL | GCSF Stimulated [1, 5]: 292.44 pg/mL | GMCSF Not Stimulated [1, 5]: 0.21 pg/mL | GMCSF Stimulated [1, 5]: 19.15 pg/mL | IFNγ Not Stimulated [1, 5]: 33.45 pg/mL | IFNγ Stimulated [1, 5]: 57.81 pg/mL | IL-1RA Not Stimulated [1, 5]: 893.81 pg/mL | IL-1RA Stimulated [1, 5]: 13830.24 pg/mL | IL-1β Not Stimulated [1, 5]: 2.25 pg/mL | IL-1β Stimulated [1, 5]: 381.38 pg/mL | IL-2 Not Stimulated [1, 5]: 2.86 pg/mL | IL-2 Stimulated [1, 5]: 14.18 pg/mL | IL-6 Not Stimulated [1, 5]: 5.70 pg/mL | IL-6 Stimulated [1, 5]: 9359.59 pg/mL | IL-7 Not Stimulated [1, 5]: 7.40 pg/mL | IL-7 Stimulated [1, 5]: 6.87 pg/mL | IL-8 Stimulated [1, 5]: 30259.47 pg/mL | IL-9 Not Stimulated [1, 5]: 3.10 pg/mL | IL-9 Stimulated [1, 5]: 2.77 pg/mL | IL-10 Not Stimulated [1, 5]: 2.05 pg/mL | IL-10 Stimulated [1, 5]: 108.90 pg/mL | IP-10 Not Stimulated [1, 5]: 474.58 pg/mL | IP-10 Stimulated [1, 5]: 1513.02 pg/mL | MCP-1 Not Stimulated [1, 5]: 728.09 pg/mL | MCP-1 Stimulated [1, 5]: 1124.80 pg/mL | MIP-1α Not Stimulated [1, 5]: 193.51 pg/mL | MIP-1α Stimulated [1, 5]: 38207.05 pg/mL | MIP-1β Not Stimulated [1, 5]: 806.79 pg/mL | MIP-1β Stimulated [1, 5]: 89906.73 pg/mL | TNFα Not Stimulated [1, 5]: 13.44 pg/mL | TNFα Stimulated [1, 5]: 6402.98 pg/mL | VEGF Not Stimulated [1, 5]: 202.39 pg/mL | VEGF Stimulated [1, 5]: 191.77 pg/mL | bFGF Not Stimulated [1, 5]: 25.04 pg/mL | bFGF Stimulated [1, 5]: 24.50 pg/mL | inhibition at 50 mg ([1]; read-out: inhibition of LPS-stimulated GM-CSF): ≥ 70% | inhibition at 50 mg ([1]; read-out: inhibition of LPS-stimulated IFNγ): ≥ 70% | inhibition at 50 mg ([1]; read-out: inhibition of LPS-stimulated IL-2): ≥ 70% | inhibition at 50 mg ([1]; read-out: inhibition of LPS-stimulated MIP-1α): ≥ 70% | tolerability [2]: well tolerated | total lung PMNs [3]: significantly reduced
